# Experimental data reported in patent publication US6737383B1, “Herbicidal oxadiazolidines” (priority 1999, dated 2004).
# What was measured:
# corn = assay: Test B pre/postemergence corn; assay type: in vivo, Zea mays; conditions: for Corn plant response rating (0 to 10 scale): 0 is no effect
# Outline: (§1)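 Test chemicals in a non-phytotoxic solvent mixture with surfactant were sprayed preemergence onto planted seeds and postemergence onto plants 2 to 18 cm tall (1- to 4-leaf stage). After twelve to sixteen days in a greenhouse, injury was visually rated against untreated controls from 0 (no effect) to 10 (complete control).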
# crabgrass = assay: Test B pre/postemergence crabgrass; assay type: in vivo, Digitaria sanguinalis
# Outline: as §1
# sugar beet = assay: Test B pre/postemergence sugar beet; assay type: in vivo, Beta vulgaris
# Outline: as §1
# rice = assay: Test B flood test rice; assay type: in vivo, Oryza sativa; conditions: for Plant response rating, Rice (0 to 10 scale, 0 is no effect, 10 is complete control) / Rice plant response rating (0 to 10 scale, 0 is no effect, 10 is complete control): visual evaluation after twelve to sixteen days; for Rice plant response rating (0 to 10 scale, 0 is no effect, 10 is complete control): under heading Pre-emergence
# Outline: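 Flood test on plants grown to the 2-leaf stage; treated plants kept in greenhouse twelve to sixteen days, then visually rated against controls on a 0 (no effect) to 10 (complete control) scale.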
# [1] = Postemergence, Rate 125 g/ha, scale of 0 to 10 where 0 is no effect and 10 is complete control
# [2] = Preemergence, Rate 62 g/ha, scale 0 to 10 (0 no effect, 10 complete control)
# [3] = Preemergence, Rate 125 g/ha, 10 is complete control
# [4] = Preemergence, Rate 250 g/ha, scale 0 to 10, 0 is no effect, 10 is complete control
# [5] = Preemergence, Rate 500 g/ha, scale 0 to 10 (0 no effect, 10 complete control)
# [6] = Rate 62 g/ha, Postemergence, scale of 0 to 10 where 0 is no effect and 10 is complete control
# [7] = Rate 250 g/ha, Postemergence, scale 0 to 10, 0 is no effect, 10 is complete control
# [8] = Rate 500 g/ha, Postemergence, scale 0 to 10
# [9] = Preemergence, Rate 125 g/ha, 0 is no effect, 10 is complete control
# [10] = Rate 62 g/ha, headed Pre-emergence (flood test species), scale 0 to 10 (0 no effect, 10 complete control)
# [11] = Rate 125 g/ha, Pre-emergence, flood test species, scale 0 to 10 where 0 is no effect and 10 is complete control
# [12] = Rate 250 g/ha, headed Pre-emergence (flood test species), scale 0 to 10 (0 no effect, 10 complete control)
# [13] = Rate 500 g/ha, headed Pre-emergence (flood test species), scale 0 to 10 (0 no effect, 10 complete control)
# [14] = Postemergence, Rate 62 g/ha, scale 0 to 10, 0 is no effect, 10 is complete control
# [15] = Postemergence, Rate 250 g/ha, scale 0 to 10, 0 no effect, 10 complete control
# [16] = Preemergence, Rate 62 g/ha, scale 0 to 10, 0 is no effect, 10 is complete control
# [17] = Preemergence, Rate 125 g/ha, scale 0 to 10 (0 no effect, 10 complete control)
# [18] = Preemergence, Rate 250 g/ha, scale of 0 to 10 where 0 is no effect and 10 is complete control
# [19] = Preemergence, Rate 500 g/ha, scale 0 (no effect) to 10 (complete control)
# [20] = Rate 125 g/ha, Postemergence, scale 0 to 10, 0 no effect, 10 complete control
# [21] = Rate 500 g/ha, Postemergence, 0 to 10 scale (0 no effect, 10 complete control)
# [22] = Postemergence, Rate 125 g/ha, scale 0 to 10, 0 is no effect, 10 is complete control
# [23] = Postemergence, Rate 250 g/ha, scale 0 to 10, 0 is no effect, 10 is complete control
# [24] = Preemergence, Rate 500 g/ha, scale of 0 to 10 where 0 is no effect and 10 is complete control
# [25] = Rate 500 g/ha, Postemergence, scale 0 to 10, 0 no effect, 10 complete control
# [26] = Rate 62 g/ha, flood test species, Pre-emergence
# [27] = Rate 125 g/ha, flood test species
# [28] = Rate 500 g/ha, Pre-emergence, flood test species, scale 0 to 10 (0 no effect, 10 complete control)
# [29] = Postemergence, Rate 250 g/ha, scale 0 to 10
# [30] = Postemergence, Rate 500 g/ha, scale of 0 to 10 where 0 is no effect and 10 is complete control
# [31] = Preemergence, Rate 62 g/ha, scale of 0 to 10 where 0 is no effect and 10 is complete control
# [32] = Preemergence, Rate 125 g/ha, scale of 0 to 10 where 0 is no effect and 10 is complete control
# [33] = Preemergence, Rate 500 g/ha, scale 0 to 10, 0 is no effect, 10 is complete control
# [34] = Rate 62 g/ha, Postemergence, scale 0 to 10, 0 no effect, 10 complete control
# [35] = Rate 125 g/ha, Postemergence, scale 0 to 10, 0 is no effect, 10 is complete control
smiles,measurement,setting,value
CC(C)N(C(=O)n1oc(=O)n(C(C)(C)C)c1=O)c1ccccc1 [Compound 129],Corn plant response rating,corn; [1],0
same,Corn plant response rating,corn; [2],0
same,Corn plant response rating (0 to 10 scale),corn; [3],0
same,Corn plant response rating,corn; [4],2
same,Corn plant response rating,corn; [5],4
same,Corn plant response rating,corn; [6],0
same,"Plant response rating, Corn",corn; [7],2
same,Corn plant response rating,corn; [8],4
same,Crabgrass plant response rating,crabgrass; [1],4
same,Crabgrass plant response rating,crabgrass; [2],6
same,Crabgrass plant response rating (0 to 10 scale),crabgrass; [9],7
same,Crabgrass plant response rating,crabgrass; [4],7
same,Crabgrass plant response rating,crabgrass; [5],9
same,Crabgrass plant response rating,crabgrass; [6],2
same,"Plant response rating, Crabgrass",crabgrass; [7],8
same,Crabgrass plant response rating,crabgrass; [8],9
same,Sugarbeets plant response rating,sugar beet; [1],0
same,Sugarbeets plant response rating,sugar beet; [2],2
same,Sugarbeets plant response rating (0 to 10 scale),sugar beet; [9],3
same,Sugarbeets plant response rating,sugar beet; [4],3
same,Sugarbeets plant response rating,sugar beet; [5],5
same,Sugarbeets plant response rating,sugar beet; [6],0
same,"Plant response rating, Sugarbeets",sugar beet; [7],0
same,Sugarbeets plant response rating,sugar beet; [8],0
same,Rice plant response rating,rice; [10],0
same,Rice plant response rating,rice; [11],0
same,Rice plant response rating,rice; [12],8
same,"Plant response rating, Rice",rice; [13],6
CC(C)N(C(=O)n1oc(=O)n(-c2cc(Cl)ccc2Cl)c1=O)c1ccc(F)cc1 [Compound 16],Corn plant response rating,corn; [14],0
same,Corn plant response rating,corn; [15],0
same,"Plant response rating, Corn",corn; [16],0
same,"Plant response rating, Corn",corn; [17],0
same,"Plant response rating, Corn",corn; [18],0
same,Corn plant response rating,corn; [19],0
same,Corn plant response rating,corn; [20],0
same,Corn plant response rating,corn; [21],0
same,Crabgrass plant response rating,crabgrass; [14],0
same,Crabgrass plant response rating,crabgrass; [15],0
same,"Plant response rating, Crabgrass",crabgrass; [16],0
same,"Plant response rating, Crabgrass",crabgrass; [17],2
same,"Plant response rating, Crabgrass",crabgrass; [18],2
same,Crabgrass plant response rating,crabgrass; [19],2
same,Crabgrass plant response rating,crabgrass; [20],0
same,Crabgrass plant response rating,crabgrass; [21],0
same,Sugarbeets plant response rating,sugar beet; [14],0
same,Sugarbeets plant response rating,sugar beet; [15],0
same,"Plant response rating, Sugarbeets",sugar beet; [16],0
same,"Plant response rating, Sugarbeets",sugar beet; [17],0
same,"Plant response rating, Sugarbeets",sugar beet; [18],0
same,Sugarbeets plant response rating,sugar beet; [19],0
same,Sugarbeets plant response rating,sugar beet; [20],0
same,Rice plant response rating,rice; [14],0
same,Rice plant response rating,"rice; Rate 125 g/ha, Postemergence section (flood test species), scale 0 to 10, 0 no effect, 10 complete control",0
same,Rice plant response rating,"rice; Rate 500 g/ha, Postemergence section of Table B, 0 to 10 scale (0 no effect, 10 complete control)",0
same,Rice plant response rating,"rice; flood test, listed under Postemergence, Rate 250 g/ha, scale 0 to 10, 0 no effect, 10 complete control",0
COc1ccccc1Cn1c(=O)on(C(=O)N(c2ccc(F)cc2)C(C)C)c1=O [Compound 143],Corn plant response rating,corn; [1],0
same,Corn plant response rating,corn; [2],0
same,Corn plant response rating (0 to 10 scale),corn; [3],0
same,Corn plant response rating,corn; [4],0
same,Corn plant response rating,corn; [5],0
same,Corn plant response rating,corn; [6],0
same,"Plant response rating, Corn",corn; [7],0
same,Corn plant response rating,corn; [8],0
same,Crabgrass plant response rating,crabgrass; [1],8
same,Crabgrass plant response rating,crabgrass; [2],3
same,Crabgrass plant response rating (0 to 10 scale),crabgrass; [9],7
same,Crabgrass plant response rating,crabgrass; [4],8
same,Crabgrass plant response rating,crabgrass; [5],10
same,Crabgrass plant response rating,crabgrass; [6],1
same,"Plant response rating, Crabgrass",crabgrass; [7],8
same,Crabgrass plant response rating,crabgrass; [8],9
same,Sugarbeets plant response rating,sugar beet; [1],6
same,Sugarbeets plant response rating,sugar beet; [2],0
same,Sugarbeets plant response rating (0 to 10 scale),sugar beet; [9],1
same,Sugarbeets plant response rating,sugar beet; [4],3
same,Sugarbeets plant response rating,sugar beet; [5],9
same,Sugarbeets plant response rating,sugar beet; [6],1
same,"Plant response rating, Sugarbeets",sugar beet; [7],6
same,Sugarbeets plant response rating,sugar beet; [8],6
same,Rice plant response rating,"rice; Postemergence (flood test species), Rate 125 g/ha, scale of 0 to 10 where 0 is no effect and 10 is complete control",0
same,Rice plant response rating,"rice; Rate 62 g/ha, Postemergence section, flood test species, scale of 0 to 10 where 0 is no effect and 10 is complete control",0
same,"Plant response rating, Rice","rice; Rate 250 g/ha, Postemergence (flood test), scale 0 to 10, 0 is no effect, 10 is complete control",2
same,Rice plant response rating,"rice; Rate 500 g/ha, listed under Postemergence (flood test species), scale 0 to 10",4
CC(C)N(C(=O)n1oc(=O)n(N2CCOCC2)c1=O)c1ccc(F)cc1F [Compound 384],"Plant response rating, Corn",corn; [22],0
same,"Plant response rating, Corn",corn; [23],0
same,"Plant response rating, Corn",corn; [2],0
same,Corn plant response rating,corn; [24],5
same,Corn plant response rating,corn; [6],0
same,"Plant response rating, Corn",corn; [25],0
same,"Plant response rating, Crabgrass",crabgrass; [22],7
same,"Plant response rating, Crabgrass",crabgrass; [23],8
same,"Plant response rating, Crabgrass",crabgrass; [2],6
same,Crabgrass plant response rating (0 to 10 scale),"crabgrass; Preemergence, Rate 125 g/ha",6
same,Crabgrass plant response rating,crabgrass; [18],9
same,Crabgrass plant response rating,crabgrass; [24],9
same,Crabgrass plant response rating,crabgrass; [6],1
same,"Plant response rating, Crabgrass",crabgrass; [25],8
same,"Plant response rating, Sugarbeets",sugar beet; [22],0
same,"Plant response rating, Sugarbeets",sugar beet; [23],0
same,"Plant response rating, Sugarbeets",sugar beet; [2],0
same,Sugarbeets plant response rating (0 to 10 scale),"sugar beet; Preemergence, Rate 125 g/ha",0
same,Sugarbeets plant response rating,sugar beet; [18],0
same,Sugarbeets plant response rating,sugar beet; [24],2
same,Sugarbeets plant response rating,sugar beet; [6],0
same,"Plant response rating, Sugarbeets",sugar beet; [25],0
same,"Plant response rating, Rice (0 to 10 scale, 0 is no effect, 10 is complete control)",rice; [26],0
same,"Rice plant response rating (0 to 10 scale, 0 is no effect, 10 is complete control)",rice; [27],0
same,Rice plant response rating,"rice; Rate 250 g/ha, Pre-emergence, flood-test species, scale 0 to 10, 0 is no effect, 10 is complete control",0
same,Rice plant response rating,rice; [28],0
Cc1cccc(C)c1-n1c(=O)on(C(=O)N(Cc2ccccc2)C(C)C)c1=O [Compound 69],Corn plant response rating,corn; [14],0
same,Corn plant response rating,corn; [15],0
same,Corn plant response rating,corn; [2],0
same,"Plant response rating, Corn",corn; [17],0
same,"Plant response rating, Corn",corn; [18],0
same,Corn plant response rating,corn; [19],0
same,Corn plant response rating,corn; [20],0
same,Corn plant response rating,corn; [25],0
same,Crabgrass plant response rating,crabgrass; [14],0
same,Crabgrass plant response rating,crabgrass; [15],1
same,Crabgrass plant response rating,crabgrass; [2],0
same,"Plant response rating, Crabgrass",crabgrass; [17],0
same,"Plant response rating, Crabgrass",crabgrass; [18],2
same,Crabgrass plant response rating,crabgrass; [19],4
same,Crabgrass plant response rating,crabgrass; [20],0
same,Crabgrass plant response rating,crabgrass; [25],1
same,Sugarbeets plant response rating,sugar beet; [14],0
same,Sugarbeets plant response rating,sugar beet; [15],0
same,Sugarbeets plant response rating,sugar beet; [2],0
same,"Plant response rating, Sugarbeets",sugar beet; [17],0
same,"Plant response rating, Sugarbeets",sugar beet; [18],0
same,Sugarbeets plant response rating,sugar beet; [19],0
same,Sugarbeets plant response rating,sugar beet; [20],0
same,Sugarbeets plant response rating,sugar beet; [25],0
same,Rice plant response rating,rice; [10],0
same,Rice plant response rating,rice; [11],0
same,Rice plant response rating,rice; [12],0
same,"Plant response rating, Rice",rice; [13],0
CC(C)N(C(=O)n1oc(=O)n(COCC[Si](C)(C)C)c1=O)c1ccc(Cl)cc1 [Compound 467],Corn plant response rating,corn; [29],0
same,Corn plant response rating,corn; [30],0
same,"Plant response rating, Corn",corn; [31],0
same,"Plant response rating, Corn",corn; [32],0
same,Corn plant response rating,corn; [4],0
same,Corn plant response rating,corn; [33],0
same,Corn plant response rating,corn; [34],0
same,Corn plant response rating,corn; [35],0
same,Crabgrass plant response rating,crabgrass; [29],0
same,Crabgrass plant response rating,crabgrass; [30],6
same,"Plant response rating, Crabgrass",crabgrass; [31],5
same,"Plant response rating, Crabgrass",crabgrass; [32],6
same,Crabgrass plant response rating,crabgrass; [4],6
same,Crabgrass plant response rating,crabgrass; [33],8
same,Crabgrass plant response rating,crabgrass; [34],0
same,Crabgrass plant response rating,crabgrass; [35],0
same,Sugarbeets plant response rating,sugar beet; [29],4
same,"Plant response rating, Sugarbeets",sugar beet; [31],1
same,"Plant response rating, Sugarbeets",sugar beet; [32],1
same,Sugarbeets plant response rating,sugar beet; [4],1
same,Sugarbeets plant response rating,sugar beet; [33],2
same,Sugarbeets plant response rating,sugar beet; [34],0
same,Sugarbeets plant response rating,sugar beet; [35],2
same,"Plant response rating, Rice (0 to 10 scale, 0 is no effect, 10 is complete control)",rice; [26],0
same,"Rice plant response rating (0 to 10 scale, 0 is no effect, 10 is complete control)",rice; [27],0
same,Rice plant response rating,"rice; Rate 250 g/ha, Pre-emergence (flood test species), scale 0 to 10, 0 is no effect, 10 is complete control",0
same,Rice plant response rating,rice; [28],0
